# Earlier results in patent US12042557B2, “Rapid establishment and/or termination of substantial steady-state drug delivery” (Intarcia Therapeutics, Inc., priority 2009, dated 2024).
# Where two headings read alike, the source gives them in different places.
# Assays:
# [1] = tested on: subjects on metformin-only background treatment, type 2 diabetes mellitus
# [2] = in vivo
# [3] = Treatment F: oral 100 mg/day, subjects with baseline HbA1c less than 9.0
# [4] = Treatment F: oral once a day 100 mg/day, metformin background, Bergenstal 2010
Molecule,"change of HbA1c for the study [1, 3]","endpoint HbA1c % [1, 3]","change of HbA1c for the study [1, 4]","endpoint HbA1c % [1, 4]","percentage of subjects who achieved an HbA1c of 7% or less [1, 4]",half-life [2]
"N[C@@H](CC(=O)N1CCn2c(nnc2C(F)(F)F)C1)Cc1cc(F)c(F)cc1F [sitagliptin, Sitagliptin]",−0.5%,7.2%,−0.9%,7.6%,31%,–
PYY: 36 amino acid residue peptide amide [peptide YY],–,–,–,–,–,approximately 8 minutes
